# Reference: PMC10529583, “A new polymodal gating model of the proton-activated chloride channel” (PLOS Biology, 2023)
# How the values were obtained:
# Type in all cases: cell-based
# [1] = target: T1, human PAC channel (wt-PAC) (Homo sapiens, UniProt Q9H813, F196A); test: whole-cell patch clamp, inhibition of current
# T1 construct: gene PACC1; full-length, homotrimer; pCMV-blank, transiently expressed in PACC1-knockout HEK293T cells; library screen on endogenous PAC of HEK293T cells
# [2] = target: T2, human PAC channel (wt-PAC) (Homo sapiens, UniProt Q9H813, P303A/T306A/L309A); test: whole-cell patch clamp, activation of current; settings: pH 5.34; activation (site 1)
# T2 construct: gene PACC1; full-length, homotrimer; pCMV-blank, transiently expressed in PACC1-knockout HEK293T cells; library screen on endogenous PAC of HEK293T cells
# T2 sequence (Q9H813 whole entry P303A/T306A/L309A): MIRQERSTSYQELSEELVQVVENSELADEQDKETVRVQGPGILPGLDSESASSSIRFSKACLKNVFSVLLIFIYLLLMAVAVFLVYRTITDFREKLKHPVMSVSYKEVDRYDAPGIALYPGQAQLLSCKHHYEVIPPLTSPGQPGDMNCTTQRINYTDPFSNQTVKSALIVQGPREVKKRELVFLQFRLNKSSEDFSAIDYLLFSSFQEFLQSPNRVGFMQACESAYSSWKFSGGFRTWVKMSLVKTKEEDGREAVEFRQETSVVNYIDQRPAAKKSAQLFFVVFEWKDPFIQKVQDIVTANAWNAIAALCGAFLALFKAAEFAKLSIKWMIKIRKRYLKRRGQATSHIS
# [3] = target: T3, human PAC channel (wt-PAC) (Homo sapiens, UniProt Q9H813, A321C); test: whole-cell patch clamp, activation of current
# T3 construct: gene PACC1; full-length, homotrimer; pCMV-blank, transiently expressed in PACC1-knockout HEK293T cells; library screen on endogenous PAC of HEK293T cells
# T3 sequence (Q9H813 whole entry A321C): as the sequence (Q9H813 whole entry P303A/T306A/L309A) above, with A303P, A306T, A309L, A321C counted along it
# [4] = target: T3, human PAC channel (wt-PAC); test: whole-cell patch clamp, inhibition of basal current
# [5] = target: T4, human PAC channel (wt-PAC) (Homo sapiens, UniProt Q9H813, A81C/L309A/P303A/T306A); test: whole-cell patch clamp, inhibition of current
# T4 construct: gene PACC1; full-length, homotrimer; pCMV-blank, transiently expressed in PACC1-knockout HEK293T cells; library screen on endogenous PAC of HEK293T cells
# T4 sequence (Q9H813 whole entry A81C/P303A/T306A/L309A): as the sequence (Q9H813 whole entry P303A/T306A/L309A) above, with A81C counted along it
# [6] = target: T5, human PAC channel (wt-PAC) (Homo sapiens, UniProt Q9H813); test: whole-cell patch clamp, activation of proton-evoked current
# T5 construct: gene PACC1; full-length, homotrimer; pCMV-blank, transiently expressed in PACC1-knockout HEK293T cells; library screen on endogenous PAC of HEK293T cells
# T5 sequence (Q9H813 whole entry): as the sequence (Q9H813 whole entry P303A/T306A/L309A) above, with A303P, A306T, A309L counted along it
# [7] = target: T6, human PAC channel (wt-PAC) (Homo sapiens, UniProt Q9H813, F196A/R237A); test: whole-cell patch clamp, inhibition of current
# T6 construct: gene PACC1; full-length, homotrimer; pCMV-blank, transiently expressed in PACC1-knockout HEK293T cells; library screen on endogenous PAC of HEK293T cells
# T6 sequence (Q9H813 whole entry F196A/R237A): as the sequence (Q9H813 whole entry P303A/T306A/L309A) above, with F196A, R237A, A303P, A306T, A309L counted along it
# [8] = target: T7, human PAC channel (wt-PAC) (Homo sapiens, UniProt Q9H813, R237A); test: whole-cell patch clamp, effect of […] compound on current; settings: root pH of the mutant; inhibited, not activated
# T7 construct: gene PACC1; full-length, homotrimer; pCMV-blank, transiently expressed in PACC1-knockout HEK293T cells; library screen on endogenous PAC of HEK293T cells
# T7 sequence (Q9H813 whole entry R237A): as the sequence (Q9H813 whole entry P303A/T306A/L309A) above, with R237A, A303P, A306T, A309L counted along it
# [9] = target: T8, human PAC channel (wt-PAC) (Homo sapiens, UniProt Q9H813, A81C); test: whole-cell patch clamp, inhibition of current
# T8 construct: gene PACC1; full-length, homotrimer; pCMV-blank, transiently expressed in PACC1-knockout HEK293T cells; library screen on endogenous PAC of HEK293T cells
# T8 sequence (Q9H813 whole entry A81C): as the sequence (Q9H813 whole entry P303A/T306A/L309A) above, with A81C, A303P, A306T, A309L counted along it
# [10] = target: T5, human PAC channel (wt-PAC); test: whole-cell patch clamp, inhibition of proton-evoked current; settings: pH 4.6, open-state pore site (site 2, second site), voltage ramp -70 to +80 mV
# T1 sequence (Q9H813 whole entry F196A): as the sequence (Q9H813 whole entry P303A/T306A/L309A) above, with F196A, A303P, A306T, A309L counted along it
compound,measurement,setting,value
"Cc1occc1C(=O)Nc1ccc(I)cc1C(=O)O [C77304, 5–iodo–2–(2–methylfuran–3–carboxamido)benzoicacid]",IC50,[1],3 ± 0.5 µM
same,"whole-cell patch clamp, activation of current",[2],the P303A/T306A/L309A mutations did not affect the activation effect of C77304 on the channel
same,EC50,[3],1 ± 0.4 µM
same,IC50,[4],11.8 ± 1.9 µM
same,IC50,[5],~200 µM
same,EC50,[6],0.6 ± 0.2 µM
same,IC50,[7],5.7 ± 0.9 µM
same,"whole-cell patch clamp, effect of 5 μM compound on current",[8],"currents mediated by the PAC/R237A mutant, but not any others, were significantly inhibited"
same,IC50,[9],18.3 ± 3 µM
same,IC50,[10],8.3 ± 1.0 µM
